Structures are written as SMILES.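 How tested: cells in 96-well plates exposed to compound for 48 hours at five concentrations. GI50 marks 50% less growth. Definition used: TGI = concentration required for complete inhibition of growth.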

What all share (test): NCI anticancer screen, dose series, 48 h
The subject of test [1] is HOP-62 NSCLC.
The test system of test [2] is UO-31 renal.
Test [3] relates to SK-OV-3 ovarian.
The test system of test [4] is NCI-H522 lung.
Test [5] concerns MOLT-4 leukemia.
In test [6] the test system is HOP-92 NSCLC.
The subject of test [7] is MALME-3M melanoma.
The subject of test [8] is A549 NSCLC.
Test [9] relates to K-562 leukemia.
For test [10], the system named is HT29 colon.

As to `Cc1cc(S(=O)(=O)NC#N)c(S/C(=N\Nc2ccc([N+](=O)[O-])cc2)c2ccc(Cl)cc2)cc1Cl`, the GI50 is 41.6 µM in test [1]; 34 µM in [2]; 17.9 µM in [3]; 21.8 µM in test [4]; 19.5 µM in [5]; 19.4 µM in test [6]. Further, the figures for the GI50 in test [7], in test [8] and in test [9] were 24.4 µM, 52.6 µM and 35.3 µM, respectively. The TGI in [1] is > 100 µM; in test [2], > 100 µM; in test [3] it was 57.6 µM; in test [4], 89.5 µM; in [5], > 100 µM; in test [6] it was 96.9 µM. The TGI in [7] is 96.3 µM; in [8] it was > 100 µM; in test [9], 80.3 µM.

Turning to `COc1ccc2c(c1)/C(=C\c1c(Cl)[nH]c3ccc(OC)cc13)C(=O)N2`, the GI50 is 32.6 µM in [1]; 87.1 µM in [2]; 41.9 µM in test [3]; 26.8 µM in test [4]; 46.9 µM in test [5]; 61.7 µM in test [6]. For the same molecule, the GI50 in test [7] was 21 µM; in test [8], 65.1 µM; in test [10] it was 21.4 µM. Moreover, the TGI in [1] was 95.2 µM; in [2] it was > 100 µM; in test [3], > 100 µM; in [4], 74.4 µM; in [5], > 100 µM; in [6], > 100 µM. The TGI in test [7] is 44.1 µM; in test [8], > 100 µM; in [10], > 100 µM.

`O=C(N/N=C(/CCN1CCCC1)CC(c1ccccc1)c1c(O)c2ccccc2oc1=O)c1ccncc1` (centres undefined): the TGI in test [1], in test [2], in test [3], in test [4], in test [6] and in test [7] was > 100 µM in each case. The TGI in [8], in test [10] and in test [9] was > 100 µM in each case.

Take `O=C1NC(=S)S/C1=C(/C=C(\CC(=O)c1ccccc1)c1ccc(Cl)cc1)c1ccccc1`: the GI50 in test [1] is 38.5 µM; in test [2], 48.6 µM; in [3], > 100 µM; in [4], 17.9 µM; in [5] it was 19.5 µM; in test [7], 39.9 µM. Moreover, the GI50 was 20.2 µM in [8] and 15.3 µM in test [9]. The TGI was > 100 µM in [1]; > 100 µM in test [2]; > 100 µM in [3]; 44.9 µM in [4]; 51.6 µM in test [5]; > 100 µM in test [7]. Further, the TGI in test [8] and in [9] was > 100 µM in each case.

As for `CC(=O)OCC(OC(C)=O)C(OC(C)=O)C(OC(C)=O)C(=O)CNn1c(-c2ccccc2Cl)nc2ccccc2c1=O` (centres undefined), the TGI in test [1], in test [2], in test [3], in test [4], in test [5] and in test [7] was > 100 µM throughout. Further, the TGI in test [8], in test [10] and in test [9] was > 100 µM in each case.

For the molecule `CCOC(=O)/C=C/C1=C(c2cccs2)c2ccccc2CC1`, the GI50 is 38 µM in [1]; 33.5 µM in test [2]; 31.6 µM in test [3]; 24.3 µM in test [4]; 37.4 µM in [6]; 24.8 µM in test [7]. The results for the GI50 in [8], in [10] and in test [9] were 33.8 µM, 24.4 µM and 30.6 µM, respectively. For the same molecule, the TGI in test [1] was > 100 µM; in test [2], > 100 µM; in [3] it was > 100 µM; in [4], 63.6 µM; in test [6], > 100 µM; in test [7], 69.7 µM. Besides, the TGI in test [8] is > 100 µM; in [10] it was 65.3 µM; in test [9], > 100 µM.

With `O=C1C(c2ccccc2)=[N+]([O-])c2ccccc21`, the TGI in [1] stood at 37.4 µM; in [2], 29.7 µM; in test [3], 31.4 µM; in test [5], 47.2 µM; in test [6], 20.7 µM; in test [7] it was 38.5 µM. In addition, the TGI in test [8] amounted to 48.7 µM; in test [10] it was 42.1 µM; in [9], 8.34 µM.

As for `Cc1cc(C)c(C(=O)c2no[n+]([O-])c2C(=O)c2c(C)cc(C)c(Br)c2C)c(C)c1Br`, the TGI in test [1] was determined as 33.4 µM; in test [2], 20.2 µM; in test [3], 52.3 µM; in test [4], 23.4 µM; in test [5], 20.2 µM; in [6], 20.3 µM. Besides, the TGI in test [7] is 29.9 µM; in test [8], 39.1 µM; in [10] it was 27.4 µM.

Turning to `Cc1nc2sccn2c1-c1csc(Nc2cccc(Cl)c2C)n1`, the GI50 was 10.3 µM in test [1]; 3.05 µM in [2]; 21.2 µM in [3]; 3.94 µM in [4]; 4.22 µM in [5]; 3.23 µM in test [8]. The GI50 in test [10] was 3.29 µM; in test [9], 2.12 µM. In addition, the TGI in [1] is > 100 µM; in test [2] it was 23.7 µM; in test [3], > 100 µM; in test [4], 26.5 µM; in [5], 26.8 µM; in [8], 49.2 µM. The TGI in test [10] is 14.7 µM; in [9], > 100 µM.

For `Cc1ccccc1C1=C(C(=O)Nc2ccc(Cl)c(Cl)c2)NC(=S)NC1N` (centres undefined), the TGI in [2], in test [3], in [4], in test [5], in test [7] and in [8] was > 100 µM each time. In addition, the TGI in [10] and in test [9] was > 100 µM each time.

For the molecule `COC(=O)c1ccccc1NC(=O)C(=O)NNC(=O)c1ccncc1`, the TGI in test [1], in test [2], in [3], in test [4], in test [5] and in [6] was > 100 µM throughout. For the same molecule, the TGI in [7], in [8] and in [10] was > 100 µM in each case.

The record behind these values is PubChem BioAssay (NCI).
